Laboratory results reported in patent US20230157952A1, “METHOD FOR IMPROVING THE STABILITY OF A PHARMACEUTICAL COMPOSITION COMPRISING A HIGH PENETRATION DRUG, AND THE PHARMACEUTICAL COMPOSITION OBTAINED THEREFROM” (Techfields Inc., priority 2020, published 2023).

Legend:
[1] = Stability of the pure HPDs (dry solid) at 25° C./RH 60%; format: physicochemical; conditions: pure HPD, 25° C./RH 60%
[2] = Effect of solvent on the stability of the solution (purity at various pH values and temperature); format: physicochemical
[3] = Effect of concentration on the stability of the solution (purity over time); conditions: at 5° C. in 15% ethanol

## Br.CCN(CC)CCOC(=O)[C@H](C)c1ccc(CC(C)C)cc1 (racemic) [C-1-4, 2-(diethylamino)ethyl (R,S)-2-(p-isobutylphenyl)propionate•HBr salt]
[1]; 24 month
  Purity: 98.0 ± 0.5

## CCN(CC)CCOC(=O)c1ccccc1OC(C)=O.Cl [2-(diethylamino)ethyl acetylsalicylate•HCl]
[2]; 7% solution in water
  Stability of the solution at a temperature higher than 40° C. and a pH lower than 3 or greater than 6: not stable
[2]; 7% solution, 15% ethanol
  Effect of the solvent on the stability of the solution: did not affect the stability
[2]; 7% solution, 25% ethanol
  Effect of the solvent on the stability of the solution: did not affect the stability
[2]; 7% solution, 50% ethanol
  Effect of the solvent on the stability of the solution: did not affect the stability
[2]; 7% solution, tables 51-54 (water, 15%, 25%, 50% ethanol)
  Effect of the amount of ethanol on the stability of the solution: did not affect the stability
[3]; 0.01 wt %
  Purity at day 0: 99.1%
  Purity at day 3: 93.1%
  Purity at day 7: 88.2%
  Purity at day 14: 81.4%
  Purity at day 21: 74.9%
  Purity at day 28: 68.3%
  Purity at day 60: 47.1%
  Purity at day 90: 30.1%
[3]; 0.1 wt %
  Purity at day 0: 99.2%
  Purity at day 3: 95.8%
  Purity at day 7: 93.1%
  Purity at day 14: 89.5%
  Purity at day 21: 86.6%
  Purity at day 28: 83.7%
  Purity at day 60: 71.8%
  Purity at day 90: 59.9%
[3]; 1 wt %
  Purity at day 0: 99.3%
  Purity at day 3: 97.6%
  Purity at day 7: 96.9%
  Purity at day 14: 95.2%
  Purity at day 21: 93.7%
  Purity at day 28: 91.5%
  Purity at day 60: 82.7%
  Purity at day 90: 74.1%
[3]; 3 wt %
  Purity at day 0: 99.5%
  Purity at day 14: 96.4%
  Purity at day 21: 94.5%
  Purity at day 28: 92.7%
  Purity at day 60: 86.1%
  Purity at day 90: 80.2%
[3]; 5 wt %
  Purity at day 0: 99.5%
  Purity at day 3: 99.3%
  Purity at day 7: 99.1%
  Purity at day 60: 96.7%
  Purity at day 90: 96.1%
[3]; 7 wt %
  Purity at day 0: 99.6%
  Purity at day 3: 99.4%
  Purity at day 7: 99.3%
  Purity at day 14: 99.1%
  Purity at day 90: 97.2%
[3]; 8 wt %
  Purity at day 0: 99.7%
  Purity at day 3: 99.5%
  Purity at day 7: 99.3%
  Purity at day 14: 99.3%
  Purity at day 90: 97.4%
[3]; 10 wt %
  Purity at day 0: 99.6%
  Purity at day 3: 99.7%
  Purity at day 7: 99.4%
  Purity at day 14: 99.1%
  Purity at day 90: 97.2%
[3]; 15 wt %
  Purity at day 0: 99.5%
  Purity at day 3: 99.5%
  Purity at day 7: 99.3%
  Purity at day 14: 99.2%
  Purity at day 90: 97.3%
[3]; 20 wt %
  Purity at day 0: 99.5%
  Purity at day 3: 99.6%
  Purity at day 7: 99.3%
  Purity at day 14: 99.2%
  Purity at day 90: 97.3%
[3]; 30 wt %
  Purity at day 0: 99.5%
  Purity at day 3: 99.5%
  Purity at day 7: 99.4%
  Purity at day 14: 99.4%
  Purity at day 90: 97.4%
[3]; 50 wt %
  Purity at day 0: 99.7%
  Purity at day 3: 99.6%
  Purity at day 7: 99.5%
  Purity at day 14: 99.3%
  Purity at day 21: 99.2%
  Purity at day 90: 97.4%
[3]
  Stability when the concentration is 0.1% or lower: not stable

## CCN(CC)CCOC(=O)[C@@H](C)c1ccc2cc(OC)ccc2c1.Cl [A-1-2, 2-(diethylamino)ethyl (S)-2-(6-methoxy-2-naphthyl) propionate•HCl salt]
[1]; 24 month
  Purity: 98.0 ± 0.1
[1]; Day 0
  Purity: 98.6 ± 0.3

## CCN(CC)CCOC(=O)[C@H](C)c1ccc2cc(OC)ccc2c1.Cl [A-1-3, 2-(diethylamino)ethyl (R)-2-(6-methoxy-2-naphthyl) propionate•HCl salt]
[1]; 18 month
  Purity: 98.1 ± 0.2
[1]; 24 month
  Purity: 97.9 ± 0.2
